Holding throughout (format): biochemical
The target of assay [1] is T1, CDK1/Cyclin B (Homo sapiens, UniProt P06493).
T1 construct: purchased Invitrogen PR4768C
The experiment in a line: Enzymatic assay for CDK1 (LANCE Ultra kinase assay, FRET based). The settings on record: ATP at Km; read-out: CDK1 enzymatic activity IC50. As to the method:
(§1) Enzymatic Binding Assay Protocol for CDK1, CDK2, CDK5 and CDK7
(§2) Inhibition activity of the respective compound on CDK kinase under Km value of ATP was tested in FRET based The LANCE® Ultra kinase assay (Perkin Elmer), which uses a ULight™-labeled peptide substrate and an appropriate Europium-labeled anti-phospho-antibody. […] After 1 min centrifugation at 1000 rpm, purified CDKs/Cyclin complex were added with the following concentrations respectively. […] Data were analyzed using XL Fit software.
In general terms: TR-FRET usually uses a lanthanide donor and a delayed reading to cut background.

The target of assay [2] is T2, CDK5/p25 (Homo sapiens, UniProt Q00535).
T2 construct: purchased Invitrogen PR8543B
T2 sequence (Q00535 whole entry): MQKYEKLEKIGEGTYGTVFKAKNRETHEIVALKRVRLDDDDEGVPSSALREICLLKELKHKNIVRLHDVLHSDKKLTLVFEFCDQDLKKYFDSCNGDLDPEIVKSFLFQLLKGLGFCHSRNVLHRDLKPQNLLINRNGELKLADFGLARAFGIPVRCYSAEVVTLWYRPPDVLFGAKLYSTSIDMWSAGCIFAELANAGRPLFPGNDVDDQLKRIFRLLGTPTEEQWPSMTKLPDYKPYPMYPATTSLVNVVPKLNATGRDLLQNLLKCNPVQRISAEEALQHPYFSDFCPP
T2 sequence (Q15078 99-307 partner limits assumed): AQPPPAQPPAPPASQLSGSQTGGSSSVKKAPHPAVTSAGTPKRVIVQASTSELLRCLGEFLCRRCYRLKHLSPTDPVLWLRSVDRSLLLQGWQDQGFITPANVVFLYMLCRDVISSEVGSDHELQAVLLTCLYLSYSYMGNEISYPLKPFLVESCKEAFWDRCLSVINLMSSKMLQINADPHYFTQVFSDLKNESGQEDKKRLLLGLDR
The experiment in a line: Enzymatic assay for CDK5 (LANCE Ultra kinase assay, FRET based). The settings on record: ATP at Km. As to the method: as §1
(§3) Inhibition activity of the respective compound on CDK kinase under Km value of ATP was tested in FRET based The LANCE® Ultra kinase assay (Perkin Elmer), which uses a ULight™-labeled peptide substrate and an appropriate Europium-labeled anti-phospho-antibody. Test compounds were made with DMSO solutions, and then 4-fold serial dilutions for 8 doses were prepared using automated liquid handler (POD™ 810, Labcyte) and 80 nL/well of diluted compound solutions were added into the 384-well plates (Greiner, Cat #784075). And then 68 nM of ULight-MBP peptide (Perkin Elmer, Cat #TRF0109-M) and 5 ul/well of ATP (Sigma, Cat #A7699) were added to the plate. After 1 min centrifugation at 1000 rpm, purified CDKs/Cyclin complex were added with the following concentrations respectively. 24 uM for CDK1/Cyclin B (Invitrogen, Cat #PR4768C), 22 uM for CDK2/Cyclin A (Invitrogen, Cat #PV6290), 10 uM for CDK5/p25 (Invitrogen, Cat #PR8543B) and […] for CDK7/Cyclin H/MNAT1 (Invitrogen, Cat #PR6749B) were added to each corresponding plate for CDK1, CDK2, CDK5 and CDK7. Incubate at 23° C. for 60 min and then Eu-labeled anti-phospho-Myelin Basic Protein (PE, Cat #TRF0201-M) and EDTA (Invitrogen, Cat #15575038) mixture in Lance Detection Buffer (Perkin Elmer, Cat #CR97100) was added in each well. After additional incubation at 23° C. for 60 min, test articles were measured the fluorescence using Envision leader (Perkin Elmer, USA) [Laser as excitation light; […] as the first and the second emission filter]. Data were analyzed using XL Fit software.

Assay [3] addresses T3, CDK2/Cyclin A (Homo sapiens, UniProt P24941).
T3 construct: purchased Invitrogen PV6290
In words: Enzymatic assay for CDK2 (LANCE Ultra kinase assay, FRET based). The settings on record: ATP at Km. The protocol:
as §1, §3

Assay [4] has as its target T4, CDK7/Cyclin H/MNAT1 (Homo sapiens, UniProt P50613).
T4 construct: purchased Invitrogen PR6749B
The experiment in a line: Enzymatic assay for CDK7 (LANCE Ultra kinase assay, FRET based). Particulars: for pIC50: ATP at Km. As to the method: as §1, §2

pIC50: −log10 of the molar value. A value given as a limit tells only on which side of the number the result lay.

Consider five compounds from patent publication US12606561B2, “Substituted pyrazolo[1,5-a][1,3,5]triazines as CDK inhibitors” (QURIENT CO., LTD., priority 2018, dated 2026).

T1 sequence (P06493 whole entry): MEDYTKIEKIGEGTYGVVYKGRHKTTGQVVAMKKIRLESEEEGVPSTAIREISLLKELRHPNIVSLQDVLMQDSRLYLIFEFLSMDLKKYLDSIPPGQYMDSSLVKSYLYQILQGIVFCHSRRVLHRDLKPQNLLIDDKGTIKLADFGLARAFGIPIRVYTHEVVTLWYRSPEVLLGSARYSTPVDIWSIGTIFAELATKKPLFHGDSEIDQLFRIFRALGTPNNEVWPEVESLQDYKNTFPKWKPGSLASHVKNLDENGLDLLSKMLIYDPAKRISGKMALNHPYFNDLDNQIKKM
T1 sequence (P14635 whole entry partner): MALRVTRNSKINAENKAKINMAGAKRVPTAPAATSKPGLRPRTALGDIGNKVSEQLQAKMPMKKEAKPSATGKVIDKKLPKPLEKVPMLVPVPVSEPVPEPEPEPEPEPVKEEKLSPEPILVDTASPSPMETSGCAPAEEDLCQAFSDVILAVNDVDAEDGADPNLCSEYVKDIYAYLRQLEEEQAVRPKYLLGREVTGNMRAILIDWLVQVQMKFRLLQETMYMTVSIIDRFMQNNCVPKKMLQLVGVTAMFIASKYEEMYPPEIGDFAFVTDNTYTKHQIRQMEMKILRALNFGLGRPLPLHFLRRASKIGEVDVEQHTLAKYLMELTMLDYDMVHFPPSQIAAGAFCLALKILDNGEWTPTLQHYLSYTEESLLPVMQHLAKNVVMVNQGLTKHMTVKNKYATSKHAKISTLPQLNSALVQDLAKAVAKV
T4 sequence (P50613 whole entry): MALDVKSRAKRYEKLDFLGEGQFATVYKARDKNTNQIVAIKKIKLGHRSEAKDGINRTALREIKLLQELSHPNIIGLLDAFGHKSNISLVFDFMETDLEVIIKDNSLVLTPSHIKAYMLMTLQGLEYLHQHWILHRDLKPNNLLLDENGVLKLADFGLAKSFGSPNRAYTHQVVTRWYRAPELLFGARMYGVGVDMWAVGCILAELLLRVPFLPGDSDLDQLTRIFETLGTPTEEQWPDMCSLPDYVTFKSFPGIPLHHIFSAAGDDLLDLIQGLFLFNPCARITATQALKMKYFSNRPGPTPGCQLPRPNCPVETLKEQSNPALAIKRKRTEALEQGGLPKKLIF
T4 sequence (P51946 whole entry partner): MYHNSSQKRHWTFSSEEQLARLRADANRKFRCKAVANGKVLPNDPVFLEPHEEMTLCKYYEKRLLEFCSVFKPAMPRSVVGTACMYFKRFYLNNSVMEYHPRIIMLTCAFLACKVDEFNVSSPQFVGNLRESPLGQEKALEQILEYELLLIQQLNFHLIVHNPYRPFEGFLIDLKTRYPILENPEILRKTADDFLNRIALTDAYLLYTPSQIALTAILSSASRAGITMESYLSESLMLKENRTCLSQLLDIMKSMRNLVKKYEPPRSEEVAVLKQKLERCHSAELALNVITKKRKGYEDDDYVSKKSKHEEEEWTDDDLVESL
T4 sequence (P51948 whole entry partner): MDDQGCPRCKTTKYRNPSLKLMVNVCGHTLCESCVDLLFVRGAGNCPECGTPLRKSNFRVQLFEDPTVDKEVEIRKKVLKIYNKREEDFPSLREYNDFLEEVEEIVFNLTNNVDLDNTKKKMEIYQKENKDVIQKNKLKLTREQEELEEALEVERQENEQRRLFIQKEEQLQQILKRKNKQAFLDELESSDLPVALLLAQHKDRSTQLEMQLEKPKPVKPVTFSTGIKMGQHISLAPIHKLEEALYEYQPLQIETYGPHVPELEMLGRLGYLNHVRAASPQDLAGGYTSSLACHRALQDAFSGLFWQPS

In general, pIC50 refers to the negative decadic logarithm of the IC50, by convention in mol/L. With `CC(C)c1cnn2c(NCc3ccccc3-c3nccc4cc(NC(=O)/C=C/CN(C)C)ccc34)nc(O[C@@H]3CCCNC3)nc12` [Compound 152], in assay [1], the pIC50 was less than 6.00. The pIC50 in assay [2] was less than 6.00. Besides, in assay [3], the negative logarithm of the IC50 (pIC50) was less than 6.00. In addition, in assay [4], the pIC50 was greater than 7.00, the “CDK1/CDK7: Selectivity of CDK7 inhibition over CDK1 inhibition” value was “A (A indicates [fold] > 500)”, the “CDK2/CDK7: Selectivity of CDK7 inhibition over CDK2 inhibition” value was “A (A indicates [fold] > 500)” and the “CDK5/CDK7: Selectivity of CDK7 inhibition over CDK5 inhibition” value was “A (A indicates [fold] > 500)”.
For `CO[C@H]1CNCC[C@@H]1CNc1nc(NCc2ccccc2-c2nccc3cc(NC(=O)/C=C/CN(C)C)ccc23)n2ncc(C(C)C)c2n1` [Compound 131], the pIC50 in assay [1] is less than 6.00. Besides, in assay [2], the pIC50 was less than 6.00. In addition, the pIC50 in assay [3] was less than 6.00. For the same compound, in assay [4], the pIC50 is greater than 7.00, the “CDK1/CDK7: Selectivity of CDK7 inhibition over CDK1 inhibition” value is “A (A indicates [fold] > 500)”, the “CDK2/CDK7: Selectivity of CDK7 inhibition over CDK2 inhibition” value is “A (A indicates [fold] > 500)” and the “CDK5/CDK7: Selectivity of CDK7 inhibition over CDK5 inhibition” value is “A (A indicates [fold] > 500)”.
`C=C(F)C(=O)Nc1ccc2c(-c3ccccc3CNc3nc(NC[C@@H]4CNCCO4)nc4c(C(C)C)cnn34)nccc2c1` [Compound 149]: the pIC50 in assay [1] is less than 6.00. This compound had a pIC50 in assay [2] of less than 6.00. The same compound had a negative-log IC50 (pIC50) in assay [3] of less than 6.00. Further, in assay [4], the pIC50 is greater than 7.00, the “CDK1/CDK7: Selectivity of CDK7 inhibition over CDK1 inhibition” value was “B (B indicates 50 < [fold] ≤ 500)”, the “CDK2/CDK7: Selectivity of CDK7 inhibition over CDK2 inhibition” value was “C (C indicates [fold] ≤ 50)” and the “CDK5/CDK7: Selectivity of CDK7 inhibition over CDK5 inhibition” value was “B (B indicates 50 < [fold] ≤ 500)”.
Take `C=C(F)C(=O)Nc1ccc2c(-c3ccccc3CNc3nc(N[C@H]4CC[C@H](CS(=O)(=O)NC)CC4)nc4c(C(C)C)cnn34)nccc2c1` [Compound 143]: in assay [1], the pIC50 was less than 6.00. The compound further gave a pIC50 in assay [2] of less than 6.00. This compound also showed a pIC50 in assay [3] of less than 6.00. In assay [4], the pIC50 was 6.00 to 7.00, the “CDK1/CDK7: Selectivity of CDK7 inhibition over CDK1 inhibition” value was “B (B indicates 50 < [fold] ≤ 500)”, the “CDK2/CDK7: Selectivity of CDK7 inhibition over CDK2 inhibition” value was “B (B indicates 50 < [fold] ≤ 500)” and the “CDK5/CDK7: Selectivity of CDK7 inhibition over CDK5 inhibition” value was “B (B indicates 50 < [fold] ≤ 500)”.
`CC#CC(=O)Nc1ccc2c(-c3ccccc3CNc3nc(N[C@H]4CC[C@H](OC)CC4)nc4c(C(C)C)cnn34)nccc2c1` [Compound 135]: the pIC50 in assay [1] is less than 6.00. This compound also gave a pIC50 in assay [2] of less than 6.00. The same compound had a pIC50 in assay [3] of less than 6.00. In assay [4], the pIC50 was 6.00 to 7.00, the “CDK1/CDK7: Selectivity of CDK7 inhibition over CDK1 inhibition” value is “B (B indicates 50 < [fold] ≤ 500)”, the “CDK2/CDK7: Selectivity of CDK7 inhibition over CDK2 inhibition” value is “B (B indicates 50 < [fold] ≤ 500)” and the “CDK5/CDK7: Selectivity of CDK7 inhibition over CDK5 inhibition” value was “B (B indicates 50 < [fold] ≤ 500)”.
